Structures are written as SMILES. Activity calls are given as the source filed them. The rule behind the calls is not given here.

Assay [1] deals with Candida albicans. Description: Antifungal activity against Candida albicans ATCC 90027 at 20.5 to 43.5 ug/ml by microbroth method. Format: functional, organism-based. In general terms: Dilution methods test growth across graded concentrations, often in twofold steps.
In assay [2] the test system is Bacillus subtilis. Description: Antimicrobial activity against Bacillus subtilis ATCC 49343 at 20.5 to 43.5 ug/ml by microbroth method. Format: functional, organism-based.
The test system of assay [3] is Pseudomonas aeruginosa. The experiment in a line: Antimicrobial activity against Pseudomonas aeruginosa ATCC 15442 at 20.5 to 43.5 ug/ml by microbroth method. Type of assay: functional, organism-based.
In assay [4] the test system is A549. Description: Cytotoxicity against human A549 cells assessed as reduction in cell viability after 48 hrs by MTT assay. Type of assay: functional, cell-based. To be noted: A549, 48 h.
The test system of assay [5] is MCF7. The experiment in a line: Cytotoxicity against human MCF7 cells assessed as reduction in cell viability after 48 hrs by MTT assay. Format: functional, cell-based. To be noted: MCF7, 48 h.
The test system of assay [6] is PC-3. The experiment in a line: Cytotoxicity against human PC3 cells assessed as reduction in cell viability after 48 hrs by MTT assay. Type of assay: functional, cell-based. To be noted: PC-3, 48 h. (Formazan colour is commonly taken as a measure of viable cells.)
Assay [7] has as its system Enterococcus faecium. The experiment in a line: Antimicrobial activity against Enterococcus faecium ATCC 49032 at 20.5 to 43.5 ug/ml by microbroth method. Format: functional, organism-based.
For assay [8], the system named is Staphylococcus aureus. Description: Antimicrobial activity against Staphylococcus aureus ATCC 25923 at 20.5 to 43.5 ug/ml by microbroth method. Format: functional, organism-based.
Assay [9] relates to HCT-116. Description: Cytotoxicity against human HCT116 cells assessed as reduction in cell viability after 48 hrs by MTT assay. Format: functional, cell-based. To be noted: HCT-116, 48 h.
Assay [10] has as its system Escherichia coli. Description: Antimicrobial activity against Escherichia coli ATCC 8739 at 20.5 to 43.5 ug/ml by microbroth method. Format: functional, organism-based.
The test system of assay [11] is SK-MEL-5. Description: Cytotoxicity against human SK-MEL-5 cells assessed as reduction in cell viability after 48 hrs by MTT assay. Format: functional, cell-based. To be noted: SK-MEL-5, 48 h.
For assay [12], the system named is SK-MEL-5. The experiment in a line: Cytotoxicity against human SK-MEL-5 cells assessed as cell survival at 250 uM after 48 hrs by MTT assay. Type of assay: functional. To be noted: SK-MEL-5, 48 h, read-out: Survival.
The test system of assay [13] is HCT-116. The experiment in a line: Cytotoxicity against human HCT116 cells assessed as cell survival at 250 uM after 48 hrs by MTT assay. Format: functional. To be noted: HCT-116, 48 h, read-out: Survival.
Assay [14] deals with MCF7. Description: Cytotoxicity against human MCF7 cells assessed as cell survival at 250 uM after 48 hrs by MTT assay. Type of assay: functional. To be noted: MCF7, 48 h, read-out: Survival.
Assay [15] deals with PC-3. The experiment in a line: Cytotoxicity against human PC3 cells assessed as cell survival at 250 uM after 48 hrs by MTT assay. Type of assay: functional. To be noted: PC-3, 48 h, read-out: Survival.
In assay [16] the test system is A549. The experiment in a line: Cytotoxicity against human A549 cells assessed as cell survival at 250 uM after 48 hrs by MTT assay. Format: functional. To be noted: A549, 48 h, read-out: Survival.

A word on the IC50: it is the concentration that inhibits the measured activity by half. Take `COc1cc2c(c(O)c1Cl)C(=O)c1c(O)cc(C[C@H](C)O)cc1[C@H]2[C@H]1c2cc(C[C@H](C)O)cc(O)c2C(=O)c2c1cc(OC)c(Cl)c2O`: the result in [1], in assay [2], in assay [3], in [7], in [8] and in [10] was inactive. Besides, the half-inhibitory concentration (IC50) was > 20 µM in assay [4]; > 20 µM in assay [5]; > 20 µM in assay [6]; 9 µM in assay [9]; 11 µM in assay [11].

With `COc1cc2c(c(O)c1Cl)C(=O)c1c(O)cc(C[C@H](C)O)cc1[C@@H]2[C@H]1c2cc(C[C@H](C)O)cc(O)c2C(=O)c2c1cc(OC)c(Cl)c2O`, the outcome in assay [1], in [2], in [3], in assay [7], in assay [8] and in [10] was inactive. In addition, the 50% inhibitory concentration (IC50) in [4] is > 20 µM; in [5], > 20 µM; in [6], > 20 µM; in [9], 13.7 µM; in assay [11] it was 19.7 µM.

For the compound `COc1cc2c(c(O)c1Cl)C(=O)c1c(O)cc(C[C@H](C)O)cc1[C@H]2[C@@H]1c2cc(C[C@H](C)O)cc(O)c2C(=O)c2c1cc(OC)c(Cl)c2O`, the outcome in assay [1], in [2], in assay [3], in assay [7], in [8] and in assay [10] was inactive. The IC50 is > 20 µM in assay [4]; > 20 µM in assay [5]; > 20 µM in [6]; 10.5 µM in [9]; 12.2 µM in assay [11].

Regarding `COc1cc([C@@H]2c3cc4c(cc3[C@@H](O[C@@H]3O[C@@H]5CO[C@@H](C)O[C@H]5[C@H](O)[C@H]3O)[C@H]3COC(=O)[C@H]23)OCO4)cc(OC)c1O` [ETOPOSIDE], the viability at 250 µM was 26.4% in assay [12]; 11.6% in assay [13]; 43.8% in assay [14]; 45.5% in assay [15]; 19.7% in assay [16].

Source of the values: ChEMBL document CHEMBL4251678, “Coculture of Two Developmental Stages of a Marine-Derived Aspergillus alliaceus Results in the Production of the Cytotoxic Bianthrone Allianthrone A” (J Nat Prod, 2018).
